Reference: patent US20120082623A1, “SHH Regulation and Methods Thereof” (priority 2009, published 2012)
“Also recorded” adds a separate entry of the source.

Tests used:
[1] = system: Th expressing dopaminergic neurons in the substantia nigra pars compacta; assay: MPTP paradigm with and without cyclopamine; stereological quantification of Th+ cells
SVZ proliferation = system: SVZ proliferation; design: reduction in SVZ proliferation overall (PCNA) / reduction in proliferation in the C cell compartment (PCNA): concentration or dose not given beside the values; conditions: cited from earlier work; for reduction in SVZ proliferation overall (PCNA) / reduction in proliferation in the C cell compartment (PCNA): systemic MPTP or unilateral 6-OHDA into the nigro-striatal pathway
[2] = system: Shh-nLZ C/C; Dat-Cre mutant mice; assay: Kinematic analysis of spontaneous locomotion (open field) after L-Dopa or THP; assay type: in vivo, mouse; conditions: phase III mutant animals
Protocol: In particular, Bradykinesia is observed in PD. Bradykinesia is the slowed ability to start and continue movements, and impaired ability to adjust the body's position. […] There were no significant differences in the maximal speed that control and mutant mice can travel at (FIG. 40E). The relative time each animals spends at different speeds during acceleration and deceleration in individual locomotion bouts was analyzed. The numbers of “surges”, that are the reversals from acceleration to deceleration and back within a single locomotion bout, were quantitated. The “speed bin” analysis and quantitation of surges type is schematized in FIG. 40F.
Mesostriatal computations take part in the sequencing of locomotor activity and in the termination of ongoing actions (Jin and Costa, 2010; Ding et al., 2010). These processes can be partially assessed by analysis of the kinematic complexity of individual bouts of locomotion in freely ambulating mice (Benjamini et al. 2011; see also Other Results and Discussion). Quantifying the number of alternations from acceleration to deceleration and back in individual bouts of locomotion of similar duration and overall amplitude (FIG. 63G; see also Other Results and Discussion), a 100% increase in locomotive complexity of Shh-nLZ^C/C; Dat-Cre mutants in phase II but a 40% decrease in complexity in phase III compared to control littermates was observed (FIG. 48F). How much time animals spend traveling at different velocities during individual bouts of locomotion of similar length and amplitude was quantified next (see Other Results and Discussion). In phase II mice spend most time locomoting at initial and at top speeds with no discernable differences between Shh-nLZ; Dat-Cre mutants and control littermates (FIG. 64A-B). In phase III, however, Shh-nLZ^C/C; Dat-Cre animals spend 50% more time at low velocities and 80% less time at submaximal speed levels before reaching maximal velocity (FIG. 48K and FIG. 64C). Shh-nLZ^C/C; Dat-Cre animals also spend more time at sub-maximal speed levels after the animal reached peak velocities in a given bout compared to controls (FIG. 64D). […]
Spontaneous motor activity was measured in an open field arena using automatic tracking at 6 Hz by an EthoVision 3.1 system (Noldus Information Technology, Leesburg, Va.). […]
The open field arena was a polycarbonate cage 30×60×25 cm placed in a sound proof chamber. Locomotion of each mouse was recorded and tracked automatically for 10 minutes after habituation. Motor activity was measured as total distance traveled and turning bias was calculated as the net turning angle divided by distance (degrees/cm). Turning bias was calculated by subtracting the sum of ipsi- to contra-lateral movements and is independent of displacement (Spink et al., 2001).

[3] = system: Shh-nLZ C/C; Dat-Cre mutant mice; assay: Gait dynamics on treadmill (DigiGait) after acute L-Dopa or THP in mice with Shh ablation from DA neurons; assay type: in vivo, mouse; conditions: for increased absolute paw angle / reduced brake time / Brake-Stride ratio: 12 month old mutant animals; for reduced brake time / Brake-Stride ratio: THP 3 mg/kg IP, 30 minutes prior
Description: Given the involvement of the basal ganglia in the production of gait patterns, gait dynamics by ventral plane videography of mice walking on a translucent treadmill was investigated (Digigait system, Mouse specifics, Inc.), from which comparative temporal, spatial and force indices of gait were derived (Hampton et al., Physiol Behav. 2004 Sep. 15; 82(2-3):381-9; Amende et al., J Neuroeng Rehabil. 2005 Jul. 25; 2:20) of experimental and control animals from 3 to 16 months.
Either drug or vehicle control 30 minutes prior to the analysis of gait dynamics was injected in 12 month old animals. […] (FIG. 39D). […] (FIG. 39B). […] (FIG. 40C).
Gait dynamics by ventral plane videography of mice walking on a translucent treadmill (Digigait system, Mouse specifics, Inc.) were investigated, from which comparative temporal, spatial and force indices of gait were derived (Hampton et al., 2010) of Shh-nLZ^C/C; Dat-Cre—and control animals from 3 to 16 months of age (Table 1). Since altered posture can confound comparative gait analysis based on absolute measures, further analysis of locomotion on the tread mill was focused on gait length variability and relative indices of gait dynamics (relative time allotted to Swing, Brake, Propel and Stance phases) and foot angle. In Shh-nLZ^C/C; Dat-Cre mutants, gait length coefficient of variability was 30% increased at 10 months of age (FIG. 48C).
Many of the locomotion disturbances observed in Shh-nLZ^C/C; Dat-Cre were reminiscent of the functional hall marks of Parkinson's spectrum diseases which are characterized by a general impoverishment of locomotion, reduced fluidity of movement, difficulties in initiating and terminating locomotion, and increased stride length variability (Hausdorff et. al, 1998). Whether dopamine substitution by L-Dopa and the muscarinic antagonist trihexiphenidyl (THP), drugs of proven efficacy in the management of symptoms of PD related diseases, will modify acutely the locomotion deficits of Shh-nLZ^C/C; Dat-Cre mice, was tested.
Spontaneous motor activity was measured in an open field arena using automatic tracking at 6 Hz by an EthoVision 3.1 system (Noldus Information Technology, Leesburg, Va.). Derivation of acceleration and deceleration profiles and indices for turning bias and locomotion complexity is described below. Analysis of gait parameters by forced locomotion was performed by ventral plane videography on a translucent tread mill as described (Digigait, Inc.; Hampton et al., 2010).

MPTP-lesioned mice = conditions: oral administration; cited from earlier work
[4] = system: medial forebrain bundle (mFB); assay: Unilateral 6-OHDA injection into the medial forebrain bundle; turning bias and gene expression; assay type: in vivo, mouse; conditions: for Shh transcription in the vMB: wt and heterozygous GDNF mutant mice
Shh pathway = assay: Cyclopamine injection into soleus/calf muscle; GDNF and CNTF expression by qtPCR; assay type: in vivo, mouse; conditions: for dose dependence of neurotrophic factor up-regulation: soleus of endstage G93A SOD animals, 0.5, 1, or 2 μg
[5] = single systemic dose 1 hour prior to brain harvest
[6] = unilateral striatal deafferentation (Winner et al. 2006)
[7] = unilateral injection into the soleus of 125 day old G93A SOD transgenic animals

CN1CC=C(c2ccccc2)CC1 [MPTP, 1-methyl-4-phenyl-1,2,3,6-tetrahydropyridine]
reduction in the numbers of Th+ cells compared to vehicle controls ([1]; MPTP 30 mg/kg/day for 4 days, day 33, n=5): 39%
reduction in SVZ proliferation overall (PCNA) (SVZ proliferation): 40%
reduction in proliferation in the C cell compartment (PCNA) (SVZ proliferation): 50%

N[C@@H](Cc1ccc(O)c(O)c1)C(=O)O [L-Dopa, Levodopa]
deficits in the initiation of acceleration and deceleration (time at low speeds) [2]: partially normalized; also recorded: normalize the deficit during locomotion initiation; also recorded: ameliorated the deficits in the initiation of acceleration and deceleration; also recorded: ameliorate the deficits at low speeds
time spent locomoting at high / sub-maximal speeds [2]: Neither drug effected the time spend locomoting at sub-maximal speeds; also recorded: not those observed at higher speeds; also recorded: neither drug normalized the time; also recorded: do not normalize the differences at high locomotion speeds
increased absolute paw angle [3]: normalized the alterations in paw angles
reduced brake time / Brake-Stride ratio ([3]; L-Dopa 20 mg/kg SC): did not correct the reduction in brake time
reduced brake time / Brake-Stride ratio ([3]; L-Dopa 20 mg/kg SC, listed as L-DOPA): not L-DOPA
increased absolute paw angle ([3]; listed as L-DOPA): normalized by L-DOPA
Brake-Stride ratios ([3]; experimental and control animals, L-Dopa 20 mg/kg SC): reduced Brake-Stride ratios in both experimental and control animals

C[C@H]1CC[C@@]2(OC1)O[C@H]1C[C@H]3[C@@H]4CC[C@@H]5C[C@@H](O)CC[C@]5(C)[C@H]4CC[C@]3(C)[C@H]1[C@@H]2C [PYM50028]
loss of dopaminergic neurons from the substantia nigra (MPTP-lesioned mice): attenuated the loss of dopaminergic neurons from the substantia nigra
striatal GDNF (MPTP-lesioned mice): significant elevation of striatal GDNF

CCCN(CCC)CCc1cccc2c1CC(=O)N2 [Ropinirole]
mitotic activity of the SVZ (PCNA+ cells) on the lesioned side (SVZ proliferation; [5]): restores the mitotic activity of the SVZ
proliferative index on the unlesioned side (SVZ proliferation; [5]): increases the proliferative index on the unlesioned side

NCCc1cc(O)c(O)cc1O [6-OHDA, 6-hydroxy-dopamine]
GDNF and ChAT transcription in the striatum [4]: ipsi-lateral up-regulation of GDNF and ChAT transcription in the striatum
expression of Th in the vMB [4]: not affected
turning bias [4]: contra lateral turning bias
Shh transcription in the vMB [4]: up-regulation of Shh transcription in the ipsilateral ventral midbrain
Shh transcription in the vMB ([4]; listed as 6 OH-DA): ipsi-lateral up-regulation of Shh transcription in the vMB
GDNF transcription in the striatum ([4]; wt animals): No up regulation of GDNF transcription was detected
reduction in SVZ proliferation overall (PCNA) (SVZ proliferation): 40%
reduction in proliferation in the C cell compartment (PCNA) (SVZ proliferation): 50%
increase in the production of newly born Pax6+, TH+ periglomerular DA neurons in the olfactory bulb ipsilateral to the lesion (SVZ proliferation; [6]): threefold
reduction in proliferation within the SVZ (SVZ proliferation; [6]): 40%

OC(CCN1CCCCC1)(c1ccccc1)C1CCCCC1 (stereo not drawn) [THP, Trihexyphenidyl]
deficits in the initiation of acceleration and deceleration (time at low speeds) [2]: partially normalized; also recorded: normalize the deficit during locomotion initiation; also recorded: ameliorated the deficits in the initiation of acceleration and deceleration; also recorded: ameliorate the deficits at low speeds
time spent locomoting at high / sub-maximal speeds [2]: Neither drug effected the time spend locomoting at sub-maximal speeds; also recorded: not those observed at higher speeds; also recorded: neither drug normalized the time; also recorded: do not normalize the differences at high locomotion speeds
increased absolute paw angle [3]: not by THP
reduced brake time / Brake-Stride ratio ([3]; L-Dopa 20 mg/kg SC): normalized by THP; also recorded: normalized Brake Stride ratios to control levels; also recorded: normalized Brake-Stride ratios to control levels

CC1=C2C[C@H]3[C@@H](CC=C4C[C@@H](O)CC[C@@]43C)[C@@H]2CC[C@]12O[C@@H]1C[C@H](C)CN[C@H]1[C@H]2C [cyclopamine]
up regulation of GDNF expression in the muscle (Shh pathway; injection into calf muscles of control animals): 20 fold
effect on GDNF expression in adult muscles (Shh pathway; injection into limb muscle of wild type (wt) and G93A SOD1 mice): up regulation of GDNF expression
up-regulation of CNTF (Shh pathway; injection into the calf muscles of end stage G93A SOD mice): 20 fold
maximal up regulation of GDNF, fold change in gene expression over control side (Shh pathway; right soleus of 125 day old G93A SOD transgenic animals, 1 mg of Cyclopamine, 30 h post injection): 27 fold
maximal upregulation of CNTF, fold change in gene expression over control side (Shh pathway; right soleus of 125 day old G93A SOD transgenic animals, 2 mg of cyclopamine, 30 h post injection): 20 fold
dose dependence of neurotrophic factor up-regulation (Shh pathway): dose dependent up-regulation of neurotrophic factor expression
dose dependence of neurotrophic factor up-regulation (Shh pathway; listed as Cyclopamine): dose dependent up-regulation of GDNF and CNTF
increase in CNTF expression over the saline injected contra lateral control soleus (Shh pathway; [7]): 8 fold
increase in GDNF expression over the saline injected contra lateral control soleus (Shh pathway; [7]): 12 fold
reduction in Th+ cells in the ventral midbrain compared to control animals ([1]; MPTP plus cyclopamine 50 mg/kg/day by osmotic micropump, n=1): 21%
effect on MPTP induced neurodegeneration ([1]; MPTP plus cyclopamine 50 mg/kg/day, n=1): statistically significant reduction in neurodegeneration
